In US9617256B2 (priority 2007, dated 2017):
≈ marks a conversion by molar mass, not a printed value. Read-outs that look alike come from different tables or passages of the source.

Experiments:
[1] = tested on: ASAU001 (laboratory strain of S. aureus, ATCC29213); experiment: MIC broth microdilution, ASAU001; format: cell-based; conditions: for MIC: Staphylococcus aureus, ATCC29213, read-out: MIC ASAU001
Method: (§1) Bacterial isolates were cultivated from −70° C. frozen stocks by overnight passages at 35° C. in ambient air on Mueller-Hinton agar (Beckton Dickinson, Franklin Lakes, N.J.). Clinical isolates tested were obtained from various geographically diverse hospitals in the US and abroad (Focus Diagnostics, Herndon, Va. and JMI, North Liberty, Iowa). Quality control strains were from the American Type Culture Collection (ATCC; Rockville, Md.). Additional primary panel strains were generated using standard molecular biology techniques.
(§2) Minimum Inhibitory Concentrations (MICs) were determined by the broth microdilution method in accordance with the Clinical and Laboratory Standards Institute (CLSI) guidelines. In brief, organism suspensions were adjusted to a 0.5 McFarland standard to yield a final inoculum between 3×10^5 and 7×10^5 colony-forming units (CFU)/mL. Drug dilutions and inocula were made in sterile, cation adjusted Mueller-Hinton Broth (Beckton Dickinson). An inoculum volume of 100 μL was added to wells containing 100 μL of broth with 2-fold serial dilutions of drug. All inoculated microdilution trays were incubated in ambient air at 35° C. for 18-24 hours. […] Performance of the assay was monitored by the use of laboratory quality-control strains and levofloxacin, a compound with a defined MIC spectrum, in accordance with CLSI guidelines.
(§3) *AECO001 is ATCC25922, AECO063 is ATCC25922 bearing an acrAB mutation, APAE001 is ATCC27853, APAE006 is a strain of P. aeruginosa in which all efflux pumps are inactivated, APAE006+PMBN indicates MICs with the indicated strain in the presence of 8 micrograms per milliliter of polymyxin B nonapeptide, AABA1060 is a clinical isolate of Acinetobacter baumannii, ASAU001 is a laboratory strain of S. aureus (ATCC29213).

[2] = tested on: AABA1060 (clinical isolate of Acinetobacter baumannii); experiment: MIC broth microdilution, AABA1060; format: cell-based; conditions: for MIC: Acinetobacter baumannii, read-out: MIC AABA1060
Method: as §1, §2, §3

[3] = tested on: AECO001 (ATCC25922); experiment: MIC broth microdilution, AECO001; format: cell-based, E. coli; conditions: for MIC: Escherichia coli
Method: as §1, §2, §3

[4] = tested on: AECO063 (ATCC25922 bearing an acrAB mutation); experiment: microbe, parasite or virus in culture; format: cell-based, E. coli; conditions: for MIC: Escherichia coli, ATCC25922, read-out: MIC AECO063
Method: as §1, §2, §3

[5] = tested on: APAE006 in the presence of 8 micrograms per milliliter of polymyxin B nonapeptide; format: cell-based, P. aeruginosa; conditions: APAE006 with 8 micrograms per milliliter polymyxin B nonapeptide
Method: as §1, §2, §3

[6] = tested on: APAE006 (strain of P. aeruginosa in which all efflux pumps are inactivated); experiment: microbe, parasite or virus in culture; format: cell-based; conditions: Pseudomonas aeruginosa, read-out: MIC APAE006, APAE006, all efflux pumps inactivated
Method: as §1, §2, §3

[7] = tested on: APAE001 (ATCC27853); experiment: MIC broth microdilution, APAE001; format: cell-based, P. aeruginosa; conditions: Pseudomonas aeruginosa, ATCC27853, read-out: MIC APAE001, APAE001 (ATCC27853)
Method: as §1, §2, §3

[8] = ATCC25922, read-out: MIC AECO001 HSA AGP
[9] = ATCC25922, read-out: MIC AECO001

| SMILES | MIC ASAU001 ([1]; ASAU001 (ATCC29213)) | MIC AABA1060 ([2]; AABA1060 clinical isolate) | MIC AECO001 ([3]; AECO001 (ATCC25922)) | MIC [3, 8] [µg/mL] | MIC AECO063 ([4]; AECO063 (ATCC25922 acrAB mutation)) | MIC APAE006 + PMBN [5] | MIC [6] [µg/mL] | MIC [7] [µg/mL] | MIC [1] [µg/mL] | MIC [2] [µg/mL] | MIC [3, 9] [µg/mL] | MIC [4] [µg/mL] | Ratio of MICs on AECO001 [Cpd (A = —CHCH3NH2)/Cpd (A = —C(CH3)2NH2)] ([3]; MIC of paired compound with A = —CHCH3NH2 divided by MIC of compound with A = —C(CH3)2NH2, n=2 data, pairs identical except for the A moiety) |
| --- | --- | --- | --- | --- | --- | --- | --- | --- | --- | --- | --- | --- | --- |
| C[C@@H](O)[C@H](NC(=O)c1ccc(C#CC#Cc2ccc(C(F)(F)F)cc2)cc1)C(=O)NO [Example 82-22] | C (MIC's of greater than 16.0 μg/mL to 64.0 μg/mL = C) | C (MIC's of greater than 16.0 μg/mL to 64.0 μg/mL = C) | A (MIC's of 2.0 μg/mL or less = A) | 16 to 64 (≈ 37.2 to 149 µM) | A (MIC's of 2.0 μg/mL or less = A) | A (MIC's of 2.0 μg/mL or less = A) | 16 to 64 (≈ 37.2 to 149 µM) | 16 to 64 (≈ 37.2 to 149 µM) | – | – | – | – | – |
| C[C@@H](O)[C@H](NC(=O)c1ccc(C#CC#Cc2ccc(F)cc2)cc1)C(=O)NO [Example 82-23] | – | – | – | 16 to 64 (≈ 42.1 to 168 µM) | – | A (MIC's of 2.0 μg/mL or less = A) | < 2 | 16 to 64 (≈ 42.1 to 168 µM) | 16 to 64 (≈ 42.1 to 168 µM) | 16 to 64 (≈ 42.1 to 168 µM) | < 2 | < 2 | – |
| CC(C)(O)[C@H](NC(=O)c1ccc(C#CC#Cc2cccc(F)c2)cc1)C(=O)NO [Example 82-24] | – | – | – | 2 to 16 (≈ 5.07 to 40.6 µM) | – | A (MIC's of 2.0 μg/mL or less = A) | < 2 | 2 to 16 (≈ 5.07 to 40.6 µM) | 2 to 16 (≈ 5.07 to 40.6 µM) | < 2 | < 2 | < 2 | – |
| CC(C)(N)[C@H](NC(=O)c1ccc(C#CC#Cc2ccc(N)cc2)cc1)C(=O)NO [Example 82-25] | – | – | – | < 2 | – | A (MIC's of 2.0 μg/mL or less = A) | < 2 | < 2 | 16 to 64 (≈ 41 to 164 µM) | < 2 | < 2 | < 2 | 1.6 |
| CC(C)(N)[C@H](NC(=O)c1ccc(C#CC#Cc2ccc(C(F)(F)F)cc2)cc1)C(=O)NO [Example 82-26] | – | – | – | 16 to 64 (≈ 36.1 to 144 µM) | – | A (MIC's of 2.0 μg/mL or less = A) | 2 to 16 (≈ 4.51 to 36.1 µM) | 2 to 16 (≈ 4.51 to 36.1 µM) | 2 to 16 (≈ 4.51 to 36.1 µM) | 2 to 16 (≈ 4.51 to 36.1 µM) | < 2 | < 2 | – |
| CC(C)(N)[C@H](NC(=O)c1ccc(C#CC#Cc2cccc(F)c2)cc1)C(=O)NO [Example 82-27] | – | – | – | 2 to 16 (≈ 5.08 to 40.7 µM) | – | A (MIC's of 2.0 μg/mL or less = A) | < 2 | 2 to 16 (≈ 5.08 to 40.7 µM) | 16 to 64 (≈ 40.7 to 163 µM) | 2 to 16 (≈ 5.08 to 40.7 µM) | < 2 | < 2 | – |
| CC(C)(N)[C@H](NC(=O)c1ccc(C#CC#Cc2ccc(F)cc2)cc1)C(=O)NO [Example 82-28] | – | – | – | 2 to 16 (≈ 5.08 to 40.7 µM) | – | A (MIC's of 2.0 μg/mL or less = A) | < 2 | 2 to 16 (≈ 5.08 to 40.7 µM) | 2 to 16 (≈ 5.08 to 40.7 µM) | < 2 | < 2 | < 2 | – |
| CC(C)(N)[C@H](NC(=O)c1ccc(C#CC#Cc2ccc(O)cc2)cc1)C(=O)NO [Example 83-1, N—((S)-2-Amino-1-hydroxycarbamoyl-2-methyl-propyl)-4-[4-(4-hydroxy-phenyl)-buta-1,3-diynyl]-benzamide] | – | – | – | 2 to 16 (≈ 5.11 to 40.9 µM) | – | A (MIC's of 2.0 μg/mL or less = A) | < 2 | < 2 | 16 to 64 (≈ 40.9 to 164 µM) | < 2 | < 2 | < 2 | – |
| C[C@@H](N)[C@H](NC(=O)c1ccc(C#CC#Cc2ccc(O)cc2)cc1)C(=O)NO [Example 83-2] | – | – | – | 16 to 64 (≈ 42.4 to 170 µM) | – | A (MIC's of 2.0 μg/mL or less = A) | < 2 | < 2 | 16 to 64 (≈ 42.4 to 170 µM) | 2 to 16 (≈ 5.3 to 42.4 µM) | < 2 | < 2 | – |
| C[C@@H](N)[C@H](NC(=O)c1ccc(C#CC#Cc2ccc(OC3CC3)cc2)cc1)C(=O)NO [Example 84-1, N-((1S,2R)-2-Amino-1-hydroxycarbamoyl-propyl)-4-[4-(4-cyclopropoxy-phenyl)-buta-1,3-diynyl]-benzamide] | – | – | – | 2 to 16 (≈ 4.79 to 38.3 µM) | – | A (MIC's of 2.0 μg/mL or less = A) | 2 to 16 (≈ 4.79 to 38.3 µM) | 16 to 64 (≈ 38.3 to 153 µM) | 16 to 64 (≈ 38.3 to 153 µM) | 16 to 64 (≈ 38.3 to 153 µM) | < 2 | < 2 | – |
| C[C@@H](N)[C@H](NC(=O)c1ccc(C#CC#Cc2ccc(CNCC(F)F)cc2)cc1)C(=O)NO [Example 86-1, N-((1S,2R)-2-Amino-1-hydroxycarbamoyl-propyl)-4-(4-{4-[(2,2-difluoro-ethylamino)-methyl]-phenyl}-buta-1,3-diynyl)-benzamide] | – | – | – | 2 to 16 (≈ 4.4 to 35.2 µM) | – | A (MIC's of 2.0 μg/mL or less = A) | < 2 | < 2 | 16 to 64 (≈ 35.2 to 141 µM) | 2 to 16 (≈ 4.4 to 35.2 µM) | < 2 | < 2 | – |
| CC(C)(O)[C@H](NC(=O)c1ccc(C#CC#Cc2ccc(CN3CCOCC3)cc2)cc1)C(=O)NO [Example 86-4] | – | – | – | 2 to 16 (≈ 4.21 to 33.6 µM) | – | A (MIC's of 2.0 μg/mL or less = A) | < 2 | 2 to 16 (≈ 4.21 to 33.6 µM) | 16 to 64 (≈ 33.6 to 135 µM) | 2 to 16 (≈ 4.21 to 33.6 µM) | < 2 | < 2 | – |
| C[C@@H](N)[C@H](NC(=O)c1ccc(C#CC#Cc2ccc(CNCCF)cc2)cc1)C(=O)NO [Example 86-5] | – | – | – | 16 to 64 (≈ 36.7 to 147 µM) | – | A (MIC's of 2.0 μg/mL or less = A) | < 2 | < 2 | 16 to 64 (≈ 36.7 to 147 µM) | 2 to 16 (≈ 4.58 to 36.7 µM) | < 2 | < 2 | – |
| C[C@@H](N)[C@H](NC(=O)c1ccc(C#CC#Cc2ccc(CN3CCS(=O)(=O)CC3)cc2)cc1)C(=O)NO [Example 86-6] | – | – | – | 2 to 16 (≈ 3.93 to 31.5 µM) | – | A (MIC's of 2.0 μg/mL or less = A) | < 2 | 2 to 16 (≈ 3.93 to 31.5 µM) | 16 to 64 (≈ 31.5 to 126 µM) | 2 to 16 (≈ 3.93 to 31.5 µM) | < 2 | < 2 | – |
| CC(C)(N)[C@H](NC(=O)c1ccc(C#CC#Cc2ccc(CN3CCS(=O)(=O)CC3)cc2)cc1)C(=O)NO [Example 86-7] | – | – | – | 2 to 16 (≈ 3.83 to 30.6 µM) | – | A (MIC's of 2.0 μg/mL or less = A) | < 2 | 2 to 16 (≈ 3.83 to 30.6 µM) | 16 to 64 (≈ 30.6 to 122 µM) | < 2 | < 2 | < 2 | – |
